Source: US10758512B2 (KOREA INSTITUTE OF SCIENCE AND TECHNOLOGY, priority 2016, dated 2020)

Columns and labels:
[1] = system: dihydrotestosterone production in prostate cell DU145; test: Dihydrotestosterone production-inhibitory activity in prostate cells (LC-MS/MS); format: cell-based, human; conditions: 48 hours
Experimental: CWR-22Rv1, LNCaP, DU145, and PC-3 cells which are human prostate cancer cell lines were cultured and maintained in an RPMI medium (Roswell Park Memorial Institute medium) supplemented with 10% heat-inactivated fetal bovine serum (FBS), 10 U/mL penicillin, and 100 μg/mL streptomycin under conditions of 5% carbon dioxide and 37° C. The internal standard compound was dissolved in dimethyl sulfoxide at a concentration of 10 μM, and 1 μL thereof was added to 150 μL of cell culture, and treated to a cartridge to perform sample pretreatment. […] Thereafter, re-solvation was performed by using 50% aqueous methanol, and products were kept frozen at −20° C. Mass spectrometry of the stored samples was performed by using an AB SCIEX API 4000 QTRAP tandem quadrupole mass spectrometer. HPLC system used herein was Agilent 1200 pump, and solvent A was water/acetonitrile (95:5 v/v, 0.1% formic acid), and solvent B was acetonitrile/water (95:5 v/v, 0.1% formic acid). For chromatography separation, a linear gradient from 40% B solvent to 100% B solvent in 8 minutes was used. An analysis column used herein was an XTerra MS C18 column (2.1 mm×150 mm, 3.5 μm) of Waters corporation, and analysis was performed while maintaining temperature at 25° C. and a flow rate of 0.2 mL/min. […]

DU145 cells = test: Cell viability of human prostate cell line (EZCytox); format: cell-based; conditions: 48 hours, relative to DMSO control (FIG. 4)
Experimental: With regard to the human prostate cancer cell line DU145 cultured and maintained in Experimental Example 1, the culture medium and prostate cell culture were mixed, and 1×10^4 cells were seeded in a 96-well plate, and then cultured for 24 hours under conditions of 5% carbon dioxide and 37° C.
After being stabilized, the cells were treated with only 0.2% dimethyl sulfoxide as a control group, treated with testosterone (100 ng/mL or 200 ng/mL) alone, or treated with testosterone and 10 μM finasteride as a positive control, or testosterone and 1 μM, 10 μM, or 20 μM fucoxanthin, and then cultured for 48 hours.
Thereafter, the media were collected for LC-MS/MS analysis, and then cell viability of prostate cells was measured in order to examine whether treatment of the compound influences growth of the prostate cells. The cell viability was determined by measuring absorbance at 450 nm after adding an EZCytox reagent (Daeil Lab Service, Korea) and culturing for 1-4 hours under conditions of 5% carbon dioxide and 37° C. The cell viability was calculated as a percentage relative to cell viability of the control group treated with dimethyl sulfoxide (DMSO) only.

| SMILES | dihydrotestosterone production ([1]; DU145, testosterone 100 ng/mL plus finasteride 10 μM, vs testosterone alone (FIG. 3)) | cell viability of prostate cells (DU145 cells; DU145, testosterone plus finasteride 10 μM) | dihydrotestosterone production ([1]; DU145, testosterone 100 ng/mL plus fucoxanthin 1 μM, 10 μM, 20 μM, vs testosterone alone, inhibition increased with concentration (FIG. 3)) | cell viability of prostate cells (DU145 cells; DU145, testosterone plus fucoxanthin 1 μM, 10 μM or 20 μM) |
| --- | --- | --- | --- | --- |
| CC(C)(C)NC(=O)[C@H]1CC[C@H]2[C@@H]3CC[C@H]4NC(=O)C=C[C@]4(C)[C@H]3CC[C@]12C [finasteride] | remarkably inhibited | did not influence cell viability |  |  |
| CC(=O)O[C@H]1CC(C)(C)C(=C=C/C(C)=C/C=C/C(C)=C/C=C/C=C(C)/C=C/C=C(\C)C(=O)C[C@@]23O[C@]2(C)C[C@@H](O)CC3(C)C)[C@](C)(O)C1 [fucoxanthin] |  |  | remarkably inhibited | did not influence cell viability |
